In ChEMBL document CHEMBL1909493, “Synthesis and biological evaluation of novel analogues of the pan class I phosphatidylinositol 3-kinase (PI3K) inhibitor 2-(difluoromethyl)-1-[4,6-di(4-morpholinyl)-1,3,5-triazin-2-yl]-1H-benzimidazole (ZSTK474)” (J Med Chem, 2011):
Converted amounts (≈) assume the structure as drawn.

What was measured:
[1] = Half life in CD1 mouse at 10 mg/kg, ip administered as single dose by LC-MS/MS analysis; assay type: ADME, organism-based; design: dose 10 mg/kg, route intraperitoneal; settings: in vivo
[2] = AUC (infinity) in CD1 mouse at 10 mg/kg, ip administered as single dose by LC-MS/MS analysis; assay type: ADME, organism-based; design: time infinity, dose 10 mg/kg, route intraperitoneal; settings: plasma
[3] = Tmax in CD1 mouse at 10 mg/kg, ip administered as single dose by LC-MS/MS analysis; assay type: ADME, organism-based; design: dose 10 mg/kg, route intraperitoneal; settings: in vivo
[4] = Cmax in CD1 mouse at 10 mg/kg, ip administered as single dose by LC-MS/MS analysis; assay type: ADME, organism-based; design: dose 10 mg/kg, route intraperitoneal; settings: in vivo
[5] = biological target: T1, Phosphatidylinositol 4,5-bisphosphate 3-kinase catalytic subunit alpha isoform (Homo sapiens, UniProt P42336); assay: Inhibition of PIK3CA-mediated cell signaling in PTEN-deficient human U87MG cells assessed as inhibition of insulin-induced pAkt/PKB phosphorylation at Thr308 treated for 15 mins before insulin challenge measured after 5 mins by immunoblotting; assay type: cell-based, U-87MG ATCC
[6] = biological target: T1, Phosphatidylinositol 4,5-bisphosphate 3-kinase catalytic subunit alpha isoform; assay: Inhibition of PIK3CA-mediated cell signaling in PTEN-deficient human U87MG cells assessed as inhibition of insulin-induced pAkt/PKB phosphorylation at Ser473 treated for 15 mins before insulin challenge measured after 5 mins by immunoblotting; assay type: cell-based, U-87MG ATCC
[7] = biological target: Phosphatidylinositol 4,5-bisphosphate 3-kinase catalytic subunit alpha isoform (Homo sapiens, UniProt P42336, E545K); assay: Inhibition of human PI3K p110alpha helical domain E545K mutant after 2 hrs by HTRF assay
[8] = biological target: Phosphatidylinositol 4,5-bisphosphate 3-kinase catalytic subunit alpha isoform (Homo sapiens, UniProt P42336, H1047R); assay: Inhibition of human His-tagged PI3K p110alpha H1047R mutant after 2 hrs by HTRF assay
[9] = biological target: Phosphatidylinositol 4,5-bisphosphate 3-kinase catalytic subunit gamma isoform (Homo sapiens, UniProt P48736); assay: Inhibition of human His-tagged PI3K p110gamma after 2 hrs by HTRF assay
[10] = biological target: T2, Phosphatidylinositol 4,5-bisphosphate 3-kinase catalytic subunit delta isoform (Homo sapiens, UniProt O00329); assay: Inhibition of human His-tagged PI3K p110delta after 2 hrs by HTRF assay
T2 sequence (O00329 whole entry): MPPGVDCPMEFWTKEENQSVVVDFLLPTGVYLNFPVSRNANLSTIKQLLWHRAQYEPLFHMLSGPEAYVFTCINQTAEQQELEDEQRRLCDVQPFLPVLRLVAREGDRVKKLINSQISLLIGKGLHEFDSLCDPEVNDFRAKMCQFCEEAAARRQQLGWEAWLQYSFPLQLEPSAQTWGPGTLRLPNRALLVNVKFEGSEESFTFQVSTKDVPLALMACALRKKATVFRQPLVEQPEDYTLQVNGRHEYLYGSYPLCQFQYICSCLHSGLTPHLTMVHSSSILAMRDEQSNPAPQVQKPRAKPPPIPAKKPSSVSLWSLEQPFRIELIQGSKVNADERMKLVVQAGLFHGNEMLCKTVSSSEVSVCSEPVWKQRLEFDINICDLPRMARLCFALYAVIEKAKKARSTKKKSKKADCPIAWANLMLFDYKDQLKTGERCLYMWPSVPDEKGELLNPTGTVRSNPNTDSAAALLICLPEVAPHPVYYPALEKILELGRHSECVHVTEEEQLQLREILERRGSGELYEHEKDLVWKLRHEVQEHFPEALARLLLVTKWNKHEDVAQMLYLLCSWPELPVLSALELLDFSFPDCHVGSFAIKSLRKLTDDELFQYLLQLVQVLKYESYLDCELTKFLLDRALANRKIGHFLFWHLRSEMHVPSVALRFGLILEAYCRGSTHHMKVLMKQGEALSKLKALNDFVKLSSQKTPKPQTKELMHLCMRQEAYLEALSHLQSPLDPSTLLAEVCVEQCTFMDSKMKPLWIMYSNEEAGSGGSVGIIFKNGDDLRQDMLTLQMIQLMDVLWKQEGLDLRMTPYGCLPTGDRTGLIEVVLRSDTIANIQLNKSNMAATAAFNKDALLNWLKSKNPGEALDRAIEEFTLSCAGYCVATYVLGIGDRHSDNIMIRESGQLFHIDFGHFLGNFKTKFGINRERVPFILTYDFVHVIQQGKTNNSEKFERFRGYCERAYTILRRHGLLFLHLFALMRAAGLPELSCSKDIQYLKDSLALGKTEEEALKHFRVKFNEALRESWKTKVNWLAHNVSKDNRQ

[11] = biological target: T3, Phosphatidylinositol 4,5-bisphosphate 3-kinase catalytic subunit beta isoform (Homo sapiens, UniProt P42338); assay: Inhibition of human His-tagged PI3K p110beta after 2 hrs by HTRF assay
[12] = biological target: T1, Phosphatidylinositol 4,5-bisphosphate 3-kinase catalytic subunit alpha isoform; assay: Inhibition of human His-tagged PI3K p110alpha after 2 hrs by HTRF assay
[13] = Inhibition of bovine recombinant PI3K p110delta expressed in Sf21 insect cells using phosphatidylinositol as substrate after 1 hr by phosphoimaging; design: species or system Bos taurus
[14] = biological target: T3, Phosphatidylinositol 4,5-bisphosphate 3-kinase catalytic subunit beta isoform; assay: Inhibition of human recombinant PI3K p110beta expressed in Sf21 insect cells using phosphatidylinositol as substrate after 1 hr by phosphoimaging
[15] = biological target: Phosphatidylinositol 4,5-bisphosphate 3-kinase catalytic subunit alpha isoform (Mus musculus, UniProt P42337); assay: Inhibition of mouse recombinant PI3K p110alpha expressed in Sf21 insect cells using phosphatidylinositol as substrate after 1 hr by phosphoimaging
cells [16] = settings: Homo sapiens, HCT-116
cells [17] = settings: Homo sapiens, HCT-116; remark: listed apart in the source
cells [18] = settings: Homo sapiens, NZOV9
cells [19] = settings: Homo sapiens, NZB5
[20] = Aqueous solubility of the compound in water after 15 mins by HPLC analysis; settings: aqueous medium
Mus musculus [21] = assay: Toxicity in PTEN-deficient human U87MG cells xenografted Rag1-/- mouse assessed as delayed body weight loss at 50 mg/kg, ip qd for 10 days; assay type: organism-based, U-87MG ATCC; design: dose 50 mg/kg, route intraperitoneal; settings: in vivo, 240 h
[22] = Antitumor activity in PTEN-deficient human U87MG xenografted in Rag1-/- mouse assessed as inhibition of tumor growth at 15 mg/kg, ip qd for 10 days measured after 10 days (reference value: 18.5 +/- 3.4%); assay type: functional, U-87MG ATCC; settings: U-87 MG, 240 h, route intraperitoneal, read-out: GI
Mus musculus [23] = assay: Toxicity in PTEN-deficient human U87MG cells xenografted Rag1-/- mouse assessed as body weight loss at 15 mg/kg, ip qd for 10 days; assay type: organism-based, U-87MG ATCC; design: dose 15 mg/kg, route intraperitoneal; settings: in vivo, 240 h
[24] = Antitumor activity in PTEN-deficient human U87MG xenografted in Rag1-/- mouse assessed as inhibition of tumor growth at 40 mg/kg, ip qd for 10 days measured after 10 days (reference value: 18.5 +/- 3.4%); assay type: functional, U-87MG ATCC; settings: U-87 MG, 240 h, read-out: GI, route intraperitoneal
Mus musculus [25] = assay: Toxicity in PTEN-deficient human U87MG cells xenografted Rag1-/- mouse assessed as body weight loss at 40 mg/kg, ip qd for 10 days; assay type: organism-based, U-87MG ATCC; design: dose 40 mg/kg, route intraperitoneal; settings: in vivo, 240 h

Sequence of Phosphatidylinositol 4,5-bisphosphate 3-kinase catalytic subunit alpha isoform (Homo sapiens, UniProt P42336, H1047R) (P42336 whole entry H1047R, canonical isoform): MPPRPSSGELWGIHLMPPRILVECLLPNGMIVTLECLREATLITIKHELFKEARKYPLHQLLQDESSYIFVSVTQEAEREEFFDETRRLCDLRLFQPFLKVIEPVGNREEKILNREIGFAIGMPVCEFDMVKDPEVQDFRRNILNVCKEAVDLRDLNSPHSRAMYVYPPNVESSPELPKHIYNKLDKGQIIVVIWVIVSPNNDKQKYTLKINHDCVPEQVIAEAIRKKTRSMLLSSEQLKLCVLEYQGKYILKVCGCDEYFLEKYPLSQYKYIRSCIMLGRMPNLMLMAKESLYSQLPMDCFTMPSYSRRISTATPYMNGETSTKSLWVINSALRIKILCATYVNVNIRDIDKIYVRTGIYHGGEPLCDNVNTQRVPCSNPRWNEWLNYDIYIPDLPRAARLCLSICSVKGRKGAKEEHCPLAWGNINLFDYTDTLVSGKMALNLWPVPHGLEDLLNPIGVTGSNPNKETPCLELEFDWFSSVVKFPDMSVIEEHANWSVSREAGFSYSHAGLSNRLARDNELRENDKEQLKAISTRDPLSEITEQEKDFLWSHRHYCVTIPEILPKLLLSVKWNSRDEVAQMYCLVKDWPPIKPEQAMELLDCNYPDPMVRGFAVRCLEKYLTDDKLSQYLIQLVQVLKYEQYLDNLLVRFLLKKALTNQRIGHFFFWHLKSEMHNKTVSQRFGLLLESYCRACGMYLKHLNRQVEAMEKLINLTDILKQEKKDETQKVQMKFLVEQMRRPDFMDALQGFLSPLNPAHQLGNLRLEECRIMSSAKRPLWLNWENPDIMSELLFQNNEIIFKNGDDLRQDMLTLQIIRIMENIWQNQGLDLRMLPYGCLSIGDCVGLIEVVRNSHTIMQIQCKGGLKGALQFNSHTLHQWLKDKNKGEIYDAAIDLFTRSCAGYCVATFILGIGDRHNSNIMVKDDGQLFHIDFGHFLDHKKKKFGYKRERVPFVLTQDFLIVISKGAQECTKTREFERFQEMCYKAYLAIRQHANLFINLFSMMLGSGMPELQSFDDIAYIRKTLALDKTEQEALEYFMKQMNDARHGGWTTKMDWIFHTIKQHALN
T3 sequence (P42338 whole entry, canonical isoform): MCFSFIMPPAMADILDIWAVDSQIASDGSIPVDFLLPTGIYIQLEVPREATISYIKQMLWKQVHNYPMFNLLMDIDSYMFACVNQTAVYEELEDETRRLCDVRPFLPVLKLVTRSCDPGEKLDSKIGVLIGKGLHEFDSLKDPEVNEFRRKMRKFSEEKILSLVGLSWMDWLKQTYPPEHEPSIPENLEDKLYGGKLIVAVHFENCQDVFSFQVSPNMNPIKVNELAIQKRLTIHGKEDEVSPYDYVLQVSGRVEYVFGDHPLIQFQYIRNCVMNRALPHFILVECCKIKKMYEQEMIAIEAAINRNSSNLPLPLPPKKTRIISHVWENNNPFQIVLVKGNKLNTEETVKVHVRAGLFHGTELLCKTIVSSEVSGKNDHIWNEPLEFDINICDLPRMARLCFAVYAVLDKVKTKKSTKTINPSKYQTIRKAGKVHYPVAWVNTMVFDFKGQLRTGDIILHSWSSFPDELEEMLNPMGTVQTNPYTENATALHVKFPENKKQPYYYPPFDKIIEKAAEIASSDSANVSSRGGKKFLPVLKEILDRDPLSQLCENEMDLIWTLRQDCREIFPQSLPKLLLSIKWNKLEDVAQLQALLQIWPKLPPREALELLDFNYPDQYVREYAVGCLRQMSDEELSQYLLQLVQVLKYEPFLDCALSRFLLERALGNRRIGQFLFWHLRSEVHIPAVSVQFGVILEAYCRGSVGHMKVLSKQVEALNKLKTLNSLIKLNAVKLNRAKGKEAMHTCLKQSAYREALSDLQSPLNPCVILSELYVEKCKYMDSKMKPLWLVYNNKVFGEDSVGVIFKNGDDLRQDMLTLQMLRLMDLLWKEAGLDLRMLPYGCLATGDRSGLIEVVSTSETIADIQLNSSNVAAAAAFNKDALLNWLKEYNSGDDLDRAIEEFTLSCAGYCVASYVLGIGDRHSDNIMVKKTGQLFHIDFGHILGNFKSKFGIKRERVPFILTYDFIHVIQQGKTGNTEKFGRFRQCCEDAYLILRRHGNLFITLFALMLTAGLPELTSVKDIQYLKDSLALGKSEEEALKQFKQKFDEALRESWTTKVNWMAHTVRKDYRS
Sequence of Phosphatidylinositol 4,5-bisphosphate 3-kinase catalytic subunit gamma isoform (P48736 whole entry, canonical isoform): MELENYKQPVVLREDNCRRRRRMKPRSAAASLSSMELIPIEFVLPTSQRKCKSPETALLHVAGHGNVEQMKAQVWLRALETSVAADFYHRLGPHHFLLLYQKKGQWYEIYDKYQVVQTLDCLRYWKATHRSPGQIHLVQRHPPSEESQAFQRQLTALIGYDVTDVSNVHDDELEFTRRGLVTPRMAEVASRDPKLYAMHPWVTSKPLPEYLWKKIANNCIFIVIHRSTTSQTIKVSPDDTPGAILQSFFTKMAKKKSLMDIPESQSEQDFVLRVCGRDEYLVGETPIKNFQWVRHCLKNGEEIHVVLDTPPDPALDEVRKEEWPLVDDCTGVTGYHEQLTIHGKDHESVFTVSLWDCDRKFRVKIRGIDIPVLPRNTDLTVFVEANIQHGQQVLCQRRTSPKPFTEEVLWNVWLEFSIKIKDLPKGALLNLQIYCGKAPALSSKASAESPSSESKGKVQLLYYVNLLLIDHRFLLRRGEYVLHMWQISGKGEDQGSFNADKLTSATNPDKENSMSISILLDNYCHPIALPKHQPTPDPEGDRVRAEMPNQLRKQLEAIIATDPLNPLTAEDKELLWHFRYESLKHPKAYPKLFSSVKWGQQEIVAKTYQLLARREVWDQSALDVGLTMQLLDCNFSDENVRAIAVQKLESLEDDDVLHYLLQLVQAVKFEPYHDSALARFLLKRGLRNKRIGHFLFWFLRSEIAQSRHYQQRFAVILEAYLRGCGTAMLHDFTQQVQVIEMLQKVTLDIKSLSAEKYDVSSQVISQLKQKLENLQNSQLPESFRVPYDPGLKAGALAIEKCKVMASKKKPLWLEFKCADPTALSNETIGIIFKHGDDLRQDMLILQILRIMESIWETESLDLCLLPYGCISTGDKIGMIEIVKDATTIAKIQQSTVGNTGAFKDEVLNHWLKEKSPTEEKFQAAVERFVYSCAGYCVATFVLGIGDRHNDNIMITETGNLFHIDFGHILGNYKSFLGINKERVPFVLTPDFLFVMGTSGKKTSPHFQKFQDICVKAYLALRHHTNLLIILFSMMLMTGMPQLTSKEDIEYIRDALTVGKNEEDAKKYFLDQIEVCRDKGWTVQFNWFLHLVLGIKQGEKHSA
Sequence of Phosphatidylinositol 4,5-bisphosphate 3-kinase catalytic subunit alpha isoform (Homo sapiens, UniProt P42336, E545K) (P42336 whole entry E545K, the tested form may be a part, canonical isoform): as the sequence (P42336 whole entry H1047R, canonical isoform) above, with E545K, R1047H counted along it
Sequence of Phosphatidylinositol 4,5-bisphosphate 3-kinase catalytic subunit alpha isoform (Mus musculus, UniProt P42337) (P42337 whole entry, canonical isoform): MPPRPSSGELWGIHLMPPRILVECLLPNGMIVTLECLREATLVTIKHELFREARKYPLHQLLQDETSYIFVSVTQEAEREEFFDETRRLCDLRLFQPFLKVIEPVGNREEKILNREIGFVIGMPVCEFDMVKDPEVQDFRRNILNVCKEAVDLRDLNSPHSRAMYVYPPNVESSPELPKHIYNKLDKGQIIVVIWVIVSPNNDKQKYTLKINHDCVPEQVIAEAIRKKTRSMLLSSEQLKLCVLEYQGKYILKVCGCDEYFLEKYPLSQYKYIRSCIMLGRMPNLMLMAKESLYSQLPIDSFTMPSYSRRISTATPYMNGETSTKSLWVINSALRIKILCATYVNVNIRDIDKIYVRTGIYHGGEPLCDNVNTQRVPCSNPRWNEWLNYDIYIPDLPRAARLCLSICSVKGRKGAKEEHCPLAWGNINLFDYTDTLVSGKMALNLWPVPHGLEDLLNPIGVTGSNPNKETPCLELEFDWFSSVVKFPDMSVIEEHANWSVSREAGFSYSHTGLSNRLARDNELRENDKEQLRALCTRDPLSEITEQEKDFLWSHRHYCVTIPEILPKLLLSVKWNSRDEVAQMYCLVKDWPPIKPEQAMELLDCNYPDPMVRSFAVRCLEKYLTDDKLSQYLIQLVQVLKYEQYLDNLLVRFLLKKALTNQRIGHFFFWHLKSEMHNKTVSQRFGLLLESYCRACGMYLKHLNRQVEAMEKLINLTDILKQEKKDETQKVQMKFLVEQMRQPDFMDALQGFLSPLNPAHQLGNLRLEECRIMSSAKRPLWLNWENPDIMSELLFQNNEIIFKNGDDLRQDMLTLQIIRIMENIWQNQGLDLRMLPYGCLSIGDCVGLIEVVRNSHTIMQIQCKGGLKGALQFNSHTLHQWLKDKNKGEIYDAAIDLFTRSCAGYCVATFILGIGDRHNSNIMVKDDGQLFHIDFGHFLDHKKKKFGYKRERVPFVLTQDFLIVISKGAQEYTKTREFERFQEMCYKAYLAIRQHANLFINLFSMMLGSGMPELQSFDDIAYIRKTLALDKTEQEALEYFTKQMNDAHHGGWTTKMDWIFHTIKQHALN
T1 sequence (P42336 whole entry, canonical isoform): as the sequence (P42336 whole entry H1047R, canonical isoform) above, with R1047H counted along it

SMILES	half-life [1] [h]	AUC(0-inf) [2] [µM·h]	Tmax [3] [h]	Cmax [4] [nM]	IC50 [5] [nM]	IC50 [6] [nM]	IC50 [7] [nM]	IC50 [8] [nM]	IC50 [9] [nM]	IC50 [10] [nM]	IC50 [11] [nM]	IC50 [12] [nM]	IC50 [14] [nM]	IC50 [15] [nM]	IC50 (cells [16]) [nM]	IC50 (cells [17]) [nM]	IC50 (cells [18]) [nM]	IC50 (cells [19]) [nM]	solubility at […] [20] [µg/mL]	IC50 [13] [nM]	also measured
COc1cc(N)cc2c1nc(C(F)F)n2-c1nc(N2CCOCC2)nc(N2CCOCC2)n1	1.48	5.22	0.083	3450	–	–	–	–	–	–	–	–	–	–	–	12	–	–	–	–	Activity (Mus musculus [21]): Toxic
Cn1c(=O)n(-c2ccc(C(C)(C)C#N)cc2)c2c3cc(-c4cnc5ccccc5c4)ccc3ncc21 [DACTOLISIB]	–	–	–	–	–	–	–	–	–	–	–	–	–	–	–	–	–	–	–	–	inhibition in vivo at 15 mg/kg [22]: 31.5%; Activity (Mus musculus [23]): Non-toxic
FC(F)c1nc2ccccc2n1-c1nc(N2CCOCC2)nc(N2CCOCC2)n1 [ZSTK-474]	1.52	9.66	2	2360	–	–	–	–	–	–	–	–	–	–	78	97	–	–	0.61 (≈ 1.46 µM)	–	inhibition in vivo at 40 mg/kg [24]: 65.3%; Activity (Mus musculus [25]): Non-toxic

Continued, in another order:

half-life [1] [h]	AUC(0-inf) [2] [µM·h]	Tmax [3] [h]	Cmax [4] [nM]	IC50 [5] [nM]	IC50 [6] [nM]	IC50 [7] [nM]	IC50 [8] [nM]	IC50 [9] [nM]	IC50 [10] [nM]	IC50 [11] [nM]	IC50 [12] [nM]	IC50 [14] [nM]	IC50 [15] [nM]	IC50 (cells [16]) [nM]	IC50 (cells [17]) [nM]	IC50 (cells [18]) [nM]	IC50 (cells [19]) [nM]	solubility at […] [20] [µg/mL]	SMILES	IC50 [13] [nM]	also measured
1.55	1.03	0.25	628	2.9	1.3	0.12	0.83	6	0.65	3.5	0.53	0.68	0.9	0.18	8.3	10	30	0.32 (≈ 0.738 µM)	Oc1cccc2c1nc(C(F)F)n2-c1nc(N2CCOCC2)nc(N2CCOCC2)n1	0.27	–
–	–	–	–	418	427	3	8.5	56	34	> 2500	4.7	56	26	381	415	28	47	–	FC(F)Oc1cccc2c1nc(C(F)F)n2-c1nc(N2CCOCC2)nc(N2CCOCC2)n1	7.4	–
–	–	–	–	378	583	49	158	52	2	44	70	6.7	37	515	507	130	334	–	COc1ccc2c(nc(C(F)F)n2-c2nc(N3CCOCC3)nc(N3CCOCC3)n2)c1O	0.3	–
